Results as given in US11339124B2, “3-(benzylamino)-4-(cyclohexylamino)-n-(2-(piperazin-1-yl)ethyl)benzenesulfonamide derivatives and related ferrostatin-1 analogues as cell death inhibitors for treating e.g. stroke” (VIB VZW, priority 2018, dated 2022).
Where two headings read alike, the source gives them in different places.

What was measured:
[1] = tested on: IMR-32 Neuroblastoma cells; test: Erastin-induced ferroptosis in IMR-32 neuroblastoma cells (Sytox Green cell death readout); assay type: cell-based; details: IMR-32 cells, 10 μM erastin, compounds 1 nM to 1 μM, triplicate, read-out: IC50, antiferroptotic activity in response to erastin-induced ferroptosis
Method: In the present invention the potency of a compound inhibiting (or reducing) ferroptosis and/or oxytosis are determined in in vitro or in vivo assays. Typically in vitro assays are used to measure the potency of a candidate compound. Examples of suitable in vitro assays are cellular assays. One non-limiting example of an assay involves the use of the IMR-32 neuroblastoma cell line. The latter is stimulated to enter into ferroptosis upon stimulation with 10 μM erastin, a documented ferroptosis inducer (see for example Dixon et al (2012) Cell 149, 1060-1072 and ferroptosis inhibitors are evaluated for the prevention of erastin induced ferroptosis. Yet another assay is based the glutamate-induced cell death in the hippocampal cell line HT22 and ferroptosis/oxytosis inhibitors are evaluated for the prevention of cell death (see Henke N. et al (2013) Cell Death and Disease 4, e470). Still another assay is based on the sorafinib induced cell death (described to be iron dependent cell death) in hepatocellular carcinoma cells and ferroptosis inhibitors are evaluated for the prevention of cell death (see Louandre C. et al (2013) Int. J. Cancer 133, 1732). The calculated potency of a compound inhibiting ferroptosis and/or oxytosis is typically depicted as an IC50 value. Examples of suitable in vivo assays are typically pre-clinical disease models of for example mice for the diseases benefiting the application of ferroptosis and/or oxytosis inhibitors, as described herein. One non-limiting example of an in vivo assay is based on inducing liver damage in mice by administering the herbicide diquat dibromide monohydrate and ferroptosis inhibitors are evaluated based on reduced levels of liver transaminases in serum (see Ran Q et al (2004) J. Biol. Chem. 279, 53, 55137).
The IC50 values for the individual compounds of the invention were determined in the neuroblastoma, IMR-32 cell line. In brief, IMR-32 cells were subjected to 10 μM erastin, the latter compound is known to induce ferroptosis. A concentration gradient (ranging from 1 nM to 1 μM) of the compounds was applied to the cells. These experiments were performed in a 96-well format (in triplicate), and cell death was analyzed in a fluorescent plate reader by use of a fluorescent cell death dye (1.5 μM Sytox Green). The IC50 values depicted in Table 1 are the concentration values for the individual compounds which are able to overcome ferroptosis.

[2] = Kinetic solubility (turbidimetric method); assay type: physicochemical; details: 10 mM PBS pH 7.4, 2% DMSO, test range 3.125-200 μM, 2 h at 37° C.
Method: A turbidimetric method was used. First a series of DMSO compound stock solutions was prepared ([…]). An aliquot of 4 μL stock solution was added to 196 μL PBS buffer (pH 7.4). A series of concentrations were prepared (3.13-200 μM), including a blank on a microtiter plate. (2% DMSO-D6) The microtiter plate was shaken for 10 seconds and incubated for 2 hours at 37° C. When there was no turbidity measured at a given concentration the sample was assumed to be dissolved.

[3] = Microsomal (metabolic) stability, human liver microsomes; details: human liver microsomes, 0.5 mg protein/ml, 10 μM compound, 37° C.
Excerpt: By using the measured microsomal in vitro t1/2, a calculated value for the intrinsic clearance Clint can be determined. This value states the measure in which a drug that is not bound to plasma proteins is irreversibly removed from the body by the liver. This value is expressed in mL/min/kg which can be interpreted as the volume of blood in mL that is cleared of a drug per minute per kilogram of body weight. The CLint is less sensitive to used variables in ADME assays since the amount of microsomal protein and the volume of the incubation are all taken into account. (Sohlenius-Sternbeck et al., Xenobiotica, 2012, 42, 841-853)
Liver microsomes (20 mg protein/ml), NADPH regenerating system solutions A & B and 5 mM stock compound solution (100% DMSO) are prepared. The reaction mixture finally contains 713 μL purified water, 200 μL 0.5 M potassium phosphate pH 7.4, 50 μL NADPH regenerating system solution A (BD Biosciences Cat. No. 451220), 10 μL NADPH regenerating system solution B (BD Biosciences Cat. No. 451200) and 2 μL of the compound stock solution (10 μM final concentration). The reaction mixture is warmed to 37° C. for 5 minutes in a water bath and the reaction is initiated by addition of 25 μL of liver microsomes (0.5 mg protein/ml final concentration). At different time points (0 min-15 min-30 min-60 min-120 min-240 min-360 min-24 h), 20 μL is withdrawn and 80 μL cold acetonitrile is added on ice for 10 minutes. Then the mixtures are centrifuged at 13 000 rpm for 5 min at 4° C. The supernatant is further diluted in 90% water/MeCN (1/25) to fall within the range of the LC/MS/MS analysis. At each time point, the compound is analysed using LC/MS/MS with the same UPLC system as described above. A standard curve of six points was made to fit the measured concentrations. Verapamil was used as a positive control.
All obtained readouts were processed using Microsoft Excel. In order to determine the microsomal half-life t1/2 of the compounds, the rate constant k was determined by plotting the exponential decay graphs using GraFit. Microsomal t1/2 was determined using the following formula: […]

[4] = tested on: acute iron poisoning induced organ damage; test: Acute iron poisoning (FeSO4) induced organ damage, plasma LDH and creatine kinase; assay type: in vivo
Method: Equimolar amounts of ferroptosis inhibitors (˜10 mg/kg) were injected iv 15 min before ip injection of FeSO4 (300 mg/kg). Plasma was collected 2 h after FeSO4-challenge and analyzed for the presence of lactate dehydrogenase (LDH) and creatine kinase. Fer-1 is ferrostatin, 3234 is compound 37,3206 is compound 38 and 3203 is compound 39 (see Table 1 for numbering and structure). […] Equimolar amounts of ferroptosis inhibitors (˜10 mg/kg) were injected iv 30 min after ip injection of FeSO4 (300 mg/kg). Plasma was collected 8 h after FeSO4-challenge and analyzed for the presence of lactate dehydrogenase (LDH) and creatine kinase.
We identified acute iron poisoning as a novel experimental model for in rhabdomyolysis-induced kidney failure.

| Compound | Solubility (kinetic) [2] [µM] | IC50 ([1]; Homo sapiens) [nM] | IC50 [1] [nM] | Microsomal stability (t1/2), Human [3] [min] | Protection against organ damage: plasma lactate dehydrogenase (LDH) and creatine kinase levels, prophylactic setting ([4]; ~10 mg/kg iv 15 min before FeSO4 300 mg/kg ip, plasma 2 h after challenge (FIG. 5A)) | Protection against organ damage: plasma lactate dehydrogenase (LDH) and creatine kinase levels, therapeutic setting ([4]; ~10 mg/kg iv 30 min after FeSO4 300 mg/kg ip, plasma 8 h after challenge (FIG. 5B)) |
| --- | --- | --- | --- | --- | --- | --- |
| Cl.O=S(=O)(NCCN1CCNCC1)c1ccc(NC2CCCCC2)c(NCc2ccncc2)c1 [Compound 49, 4-(cyclohexylamino)-N-(2-(piperazin-1-yl)ethyl)-3-((pyridin-4-ylmethyl)amino)benzenesulfonamide Hydrochloride] | >200 | 442 |  |  |  |  |
| COCCNS(=O)(=O)c1ccc(NC2CCCCC2)c(NCc2ccncc2)c1 [Compound 46, 4-(cyclohexylamino)-N-(2-methoxyethyl)-3-((pyridin-4-ylmethyl)amino)benzenesulfonamide] | >200 | 97 |  |  |  |  |
| COCCNS(=O)(=O)c1ccc(NC2CCCCC2)c(NCc2ccccc2)c1 [Compound 36, 3-(benzylamino)-4-(cyclohexylamino)-N-(2-methoxyethyl)benzenesulfonamide] | 25 to 50 | 22 |  |  |  |  |
| CN(C)CCNS(=O)(=O)c1ccc(NC2CCCCC2)c(NCc2ccccc2)c1 [Compound 30, 3-(benzylamino)-4-(cyclohexylamino)-N-(2-(dimethylamino)ethyl)benzenesulfonamide] | >200 | 554 |  |  |  |  |
| CN1CCN(CCNS(=O)(=O)c2ccc(NC3CCCCC3)c(NCc3ccccc3)c2)CC1 [Compound 34, 3-(benzylamino)-4-(cyclohexylamino)-N-(2-(4-methylpiperazin-1-yl)ethyl)benzenesulfonamide] | >200 | 1070 |  |  |  |  |
| O=S(=O)(NCCN1CCOCC1)c1ccc(NC2CCCCC2)c(NCc2ccncc2)c1 [Compound 45, 4-(cyclohexylamino)-N-(2-morpholinoethyl)-3-((pyridin-4-ylmethyl)amino)benzenesulfonamide] | >200 | 191 |  |  |  |  |
| CN(C)CCNS(=O)(=O)c1ccc(NC2CCCCC2)c(NCc2ccncc2)c1 [Compound 40, 4-(cyclohexylamino)-N-(2-(dimethylamino)ethyl)-3-((pyridin-4-ylmethyl)amino)benzenesulfonamide] | >200 | 1560 |  |  |  |  |
| CN1CCN(CCNS(=O)(=O)c2ccc(NC3CCCCC3)c(NCc3ccncc3)c2)CC1 [Compound 44, 4-(cyclohexylamino)-N-(2-(4-methylpiperazin-1-yl)ethyl)-3-((pyridin-4-ylmethyl)amino)benzenesulfonamide] | >200 | 1520 |  |  |  |  |
| CCOC(=O)c1ccc(NC2CCCCC2)c(N)c1 [Compound 1, ferrostatin-1] | >200 |  | 33 | 6.54 ± 0.18 | does not show any significant protection | only shows minor protection |

Second part, led by results:

| Solubility (kinetic) [2] [µM] | Compound | IC50 ([1]; Homo sapiens) [nM] | IC50 [1] [nM] | Microsomal stability (t1/2), Human [3] [min] | Protection against organ damage: plasma lactate dehydrogenase (LDH) and creatine kinase levels, prophylactic setting ([4]; ~10 mg/kg iv 15 min before FeSO4 300 mg/kg ip, plasma 2 h after challenge (FIG. 5A)) | Protection against organ damage: plasma lactate dehydrogenase (LDH) and creatine kinase levels, therapeutic setting ([4]; ~10 mg/kg iv 30 min after FeSO4 300 mg/kg ip, plasma 8 h after challenge (FIG. 5B)) |
| --- | --- | --- | --- | --- | --- | --- |
| >200 | CN(C)CCNS(=O)(=O)c1ccc(NC2CCCCC2)c(N)c1 [Compound 20, 3-amino-4-(cyclohexylamino)-N-(2-(dimethylamino)ethyl)benzenesulfonamide] | 160 |  |  |  |  |
| >200 | CNCCNS(=O)(=O)c1ccc(NC2CCCCC2)c(NCc2ccncc2)c1.Cl [Compound 47, 4-(cyclohexylamino)-N-(2-(methylamino)ethyl)-3-((pyridin-4-ylmethyl)amino)benzenesulfonamide Hydrochloride] | 157 |  |  |  |  |
| >200 | COCCNS(=O)(=O)c1ccc(NC2CCCCC2)c(N)c1 [Compound 26, 3-amino-4-(cyclohexylamino)-N-(2-methoxyethyl)benzenesulfonamide] | 492 |  |  |  |  |
| >200 | CN1CCN(CCNS(=O)(=O)c2ccc(NC3CCCCC3)c(N)c2)CC1 [Compound 24, 3-amino-4-(cyclohexylamino)-N-(2-(4-methylpiperazin-1-yl)ethyl)benzenesulfonamide] | 236 |  |  |  |  |
| >200 | Nc1cc(S(=O)(=O)NCCN2CCNCC2)ccc1NC1CCCCC1 [Compound 29, 3-amino-4-(cyclohexylamino)-N-(2-(piperazin-1-yl)ethyl)benzenesulfonamide] | 296 |  |  |  |  |
| 100 to 200 | Cl.NCCNS(=O)(=O)c1ccc(NC2CCCCC2)c(NCc2ccncc2)c1 [Compound 48, N-(2-aminoethyl)-4-(cyclohexylamino)-3-((pyridin-4-ylmethyl)amino)benzenesulfonamide Hydrochloride] | 112 |  |  |  |  |
| >200 | CNCCNS(=O)(=O)c1ccc(NC2CCCCC2)c(N)c1.Cl [Compound 27, 3-amino-4-(cyclohexylamino)-N-(2-(methylamino)ethyl)benzenesulfonamide Hydrochloride] | 214 |  |  |  |  |
| >200 | Cl.NCCNS(=O)(=O)c1ccc(NC2CCCCC2)c(N)c1 [Compound 28, 3-amino-N-(2-aminoethyl)-4-(cyclohexylamino)benzenesulfonamide Hydrochloride] | 306 |  |  |  |  |
| >200 | Nc1cc(S(=O)(=O)NCCN2CCOCC2)ccc1NC1CCCCC1 [Compound 25, 3-amino-4-(cyclohexylamino)-N-(2-morpholinoethyl)benzenesulfonamide] | 448 |  |  |  |  |
